Legend:
Type in all cases: cell-based
CGRP = assay: Quantity of neuropeptide CGRP released by neurone culture, ELISA (spontaneous, KCl- or capsaicin-stimulated); conditions: KCl 40 mM alone, 20 mins; based on the standard (no test substance) = 100
human keratinocytes = assay: Protection against UV-B radiation: LDH release from human keratinocytes; conditions: 0.003%, UV-B 50 mJ/cm^2, UV-B alone = 100, no UV-B = 0
Description: In cultured human cells, these effects of UV-B radiation on the cell membranes are associated with the release of a cytoplasmatic enzyme into the supernatant solution. This cytoplasmatic enzyme is lactate dehydrogenase or LDH (B. Bonnekoh, B. Farkas, J. Geisel and G. Mahrle, Lactate dehydrogenase release as an indicator of dithranol-induced membrane injury in cultured human keratinocytes, Dermatological Research (1990), Vol. 282, pages 325-331).
(§1) Human keratinocytes were incubated for three days at 37° C. in an atmosphere containing 5% by volume carbon dioxide (standard nutrient medium containing foetal calf serum (FCS)). The nutrient medium was then replaced by an isotonic common salt solution containing the substance to be tested (astilbin or engeletin). The keratinocytes were exposed to UV-B radiation (50 mJ/cm^2, DUKE GL40E lamp), followed by incubation for one day at 37° C. in an atmosphere containing 5% by volume carbon dioxide. The supernatant nutrient medium was spectroscopically analyzed for LDH2 and PEG2 by the ELISA method.
(§2) The results are set out in the following Table (% by comparison with the control test).

human PMNs = assay: Respiratory burst: reactive oxygen compounds (ROS) of zymosan-activated human PMNs, luminol luminescence; conditions: for Content of reactive oxygen compounds (ROS) (% versus control): 24 h incubation, zymosan activation; for Effectiveness in suppressing inflammatory processes: in words, effectiveness increases with the quantity used
Source text: In the course of cutaneous inflammation, leucocytes, for example polymorphonuclear neutrophilic granulocytes (PMNs), are attracted and stimulated by peptides, such as cytokines and other messenger substances such as, for example, leudotrienes released from activated or necrotic cells in the dermis. These stimulated PMNs secrete not only pro-inflammatory cytokines, leucotrienes and proteases, but also reactive oxygen compounds (ROS), such as superoxides and hypochlorite anions for example. This is done to destroy pathogenic bacteria or fungi. This activity of the PMNs is known as respiratory burst and intensifies the inflammation reaction and causes tissue damage through released ROS and lysosomal enzymes.
Particulars of the test procedure can be found in the article by Kapp et al. entitled “The role of immunomodulating cytokines, activation of the oxidative metabolism in human polymorphonuclear neutrophilic granulocytes, Journal of Investigative Dermatology, Vol. 95, pages 94S to 99S, 1990”.
A suspension of human PMNs (1 million cells per milliliter) was exposed to the substances to be tested (incubation for 24 h at 37° C. in an atmosphere containing 5% by volume CO2). The number of PMN cells was determined. The PMNs were activated with 0.1 ml zymosan (an insoluble carbohydrate from the cell wall of yeast), followed by incubation for 0.5 h at 37° C. in an atmosphere containing 5% by volume CO2).
The results are set out in the following Table (% by comparison with the control test). The quantity of ROS was measured with luminol; luminescence was determined for 60 seconds.

PGE2 = assay: Protection against UV-B radiation: PGE2 release from human keratinocytes, ELISA; conditions: 0.003%, UV-B 50 mJ/cm^2, UV-B alone = 100, no UV-B = 0
Source text: UV-B radiation (wavelength 280 to 320 nm) causes inflammation of the skin, mainly by activation of an enzyme (phospholipase A2 or PLA2) which releases arachidonic acid from the cell membrane (V. A. De Leo, D. Hanson, I. B. Weinstein and L. C. Harber, Ultraviolet radiation stimulates the release of arachidonic acid from mammalian cells in culture, Photochemistry and Photobiology (1985), Vol. 41, No. 1, pages 51 to 56). Other enzymes (so-called cyclo-oxygenases) then convert the arachidonic acid into active components, so-called prostaglandin (PG for short). The prostaglandin is secreted by the cells. The fixing of certain prostaglandins (PGE2) to specific receptors of the skin leads to reddening and swelling of the skin in the same way as sunburn does.
as §1, §2

SMILES	CGRP (CGRP)	Quantity of LDH in %/(control without UV-B exposure) (human keratinocytes) [%]	Quantity of LDH in %/(control without UV-B exposure) (human keratinocytes; listed as astilbin)	Content of reactive oxygen compounds (ROS) (% versus control) (human PMNs; dose 0.0003%)	Content of reactive oxygen compounds (ROS) (% versus control) (human PMNs; dose 0.001%)	Content of reactive oxygen compounds (ROS) (% versus control) (human PMNs; dose 0.003%)	Effectiveness in suppressing inflammatory processes (human PMNs)	Quantity of PGE2 in %/(control without UV-B exposure) (PGE2) [%]	Quantity of PGE2 in %/(control without UV-B exposure) (PGE2; listed as astilbin)	Quantity of LDH in %/(control without UV-B exposure) (human keratinocytes; listed as engeletin)	Content of reactive oxygen compounds (ROS) (% versus control) (human PMNs; dose 0.01%)	Quantity of PGE2 in %/(control without UV-B exposure) (PGE2; listed as engeletin)
[Cl-].[K+] [KCl, potassium chloride]	554 ± 8	–	–	–	–	–	–	–	–	–	–	–
C[C@@H]1O[C@@H](O[C@H]2C(=O)c3c(O)cc(O)cc3O[C@@H]2c2ccc(O)c(O)c2)[C@H](O)[C@H](O)[C@H]1O [Pure astilbin, astilbin]	–	58	reduced	47	26	14	very effective	58	reduced	–	–	–
CC1OC(OC2C(=O)c3c(O)cc(O)cc3OC2c2ccc(O)cc2)C(O)C(O)C1O (centres unmarked) [Pure engeletin, engeletin]	–	47	–	–	65	50	very effective	35	–	the effect is not as pronounced	25	the effect is not as pronounced
